In data set [1] the test system is Vero cells. Briefly: Viability of Vero cells infected with AMVN-pretreated virions. The procedure: The inocula were removed, the cells were washed, and the viability was immediately evaluated, mimicking the conditions used to test the direct exposure of the cells to the peroxidators.
After 1 h at 37°C, the cells were washed, and cell viability was evaluated as described.

Data set [2] has as its system Vero cells. Briefly: Vero cell viability after 2 h exposure to lipoperoxidators (CellTiter-Glo). Particulars: Vero. The procedure: (§1) The cells were washed twice with warm DMEM before a 100 μL lipoperoxidator solution was transferred with a multichannel pipette from the plate containing the drug dilutions in technical triplicates. The cells were incubated with peroxidators for 2 h at 37°C. Then, the medium was removed, and the cells were washed twice with DMEM at 37°C. The plates were cooled down to RT, and the medium was removed. Then, 50 μL phenol red free DMEM and 50 μL CellTiter-glo Luminiscent Cell Viability Assay (Promega, G7571/2/3) were added and mixed in an orbital shaker for 2 min. Afterwards, 80 μL of the mix was transferred onto white 96-well plates and incubated for 10 min at RT for signal stabilization. The luminescence was read in the Glomax Multidetection System (Promega) with an integration time of 0.5 s.
(§2) The means of the technical triplicates were normalized to the means of the vehicle controls, analyzed via nonlinear regression dose responses, and graphed using GraphPad Prism 9.0. Three or four independent biological replicates were performed for each treatment (n = 3 or 4).
(§3) To evaluate the effects of lipid soluble antioxidants, 10 μM vitamin E was loaded onto carrier 1% BSA in the dark for 4.5 h at RT. The cells were washed twice with DMEM at 37°C and preloaded with 100 μL of 10 μM vitamin E in BSA carrier for 3 h at 37°C. The cells were washed twice again before the addition of any lipoperoxidators. Peroxidators were then added to the cells at working concentrations and incubated for 2 h at 37°C. The peroxidation solution was then removed, and the cells were washed twice with DMEM before analyzing viability. To evaluate the effects of a water soluble antioxidant, the cells were treated with 10 μM vitamin C (final concentration) simultaneously with the lipoperoxidators.

Experiment in data set [3]: as above
Particulars: African green monkey, CC50, Vero. The procedure: as §1, §2, §3

In data set [4] the test system is HSV-1 virions. Briefly: HSV-1 virion lipid peroxidation probed with C11-Bodipy. As to conditions: Human alphaherpesvirus 1, Bodipy probe. The arrangement: species or system HSV-1 KOS. The procedure: The effects of peroxidators have been commonly evaluated against purified lipids and liposomes as a proxy, but they have not been evaluated against virions ([50], [53][–][55]). We instead directly evaluated the extent of virion lipid peroxidation.
To evaluate virion lipoperoxidation with C11-Bodipy, 50 μL DMEM containing 5 × 10^6 PFU of HSV-1 was added into each well of 96-well plates. Virions were then preloaded with 0.1 mol % of C11-Bodipy for 30 min at 37°C. […] Fluorescence was evaluated in a TECAN Infinite M200 Pro at 550 nm excitation and 580 to 630 nm emission with the reading peak at 600 nm.
To evaluate the effects of a lipid soluble antioxidant, cells or virions were preloaded with vitamin E-BSA for 3 h at 37°C. Vitamin E-BSA containing medium was removed, and the cells were washed twice with DMEM. Liperfluo (20 or 10 μM for cells or virions, respectively) or C11-Bodipy (1 μM for cells or 0.1 mol% for virions) were preloaded into the cells or virions for 30 min at 37°C.
To evaluate the effects of water soluble antioxidants, liperfluo (20 μM for cells or 10 μM for virions) or C11-Bodipy (1 μM for cells or 0.1 mol% for virions) were preloaded into the cells or virions for 30 min at 37°C. […] Fluorescence was evaluated in a TECAN Infinite M200 Pro at 515 nm excitation and 545 nm emission for liperfluo or at 550 nm excitation and 580 to 630 nm emission for C11-Bodipy.

A short description of data set [5]: HFF cell viability after 2 h exposure to lipoperoxidators (CellTiter-Glo). As to conditions: human, CC50, HFF. The procedure:
as §1, §2, §3
A general note: ATP-based viability assays read luminescence as a measure of living cells.

Data set [6] deals with HFF cells. The data set is described as above. As to conditions: HFF. The procedure: as §1, §2, §3
[7] abbreviates: preloaded with vitamin E (10 μM, BSA carrier).

Results on one compound are retold here after PMC9603946, “On the Sensitivity of the Virion Envelope to Lipid Peroxidation” (Microbiology Spectrum, 2022).

Where two headings read alike, the source gives them in different places. Marks after values point to notes of the source that are not given here.

On to `CC(C)CC(C)(C#N)N=NC(C)(C#N)CC(C)C` (centres unmarked) [AMVN, 2,2′-azobis(2,4-dimethylvaleronitrile)], for which the “decrease of infected cell viability at the highest AMVN concentration” value in data set [1] (AMVN carried by virions) lay in the range of 20 to 30%. In addition, the “concentration from which AMVN carried by virions had minor effects on infected cell viability” value in data set [1] (pretreated virions diluted 1:100) came out at 2000 µM. For the same compound, the “concentration of maximal inhibition of cell viability” value in data set [2] turned out to be 10000 µM. Moreover, the “PI, CC50 (antioxidant)/CC50” value in data set [2] (vitamin C) is listed as 0.8; in data set [2] (vitamin E), 1.2^d; in data set [6] (vitamin C), 0.9; in data set [6] (vitamin E), 1.0. Further, the CC50 – broadly, the concentration giving 50% cytotoxicity – at 2 h was 4 mM in data set [3] (no antioxidant, 2 h at 37°C); 4.6 mM in data set [3] (setting [7]); 3.3 mM in data set [3] (with vitamin C (10 μM)); 4.8 mM in data set [5] (no antioxidant, 2 h at 37°C); 4.9 mM in data set [5] (setting [7]); 4.4 mM in data set [5] (with vitamin C (10 μM)). Besides, the EC50 in data set [4] (no antioxidant, read-out: VP50 (concentration of peroxidant that results in 50% peroxidation in virion lipids)) is 2.7 mM; in data set [4] (vitamin C, read-out: VP50 (the source's name)) it was 2 mM; in data set [4] (vitamin E, read-out: VP50 (the source's name)) it was 2.4 mM. In addition, the “concentration from which HFF viability was affected” value in data set [6] was 2000 µM.
